Like-named read-outs stand apart in the source and are kept apart here.
How the values were obtained:
[1] = system: T-Rex 293 cell line SC3 cells having increased expression of androgen receptor protein due to exposure to doxycycline; experiment: Cellular growth inhibition assay, T-Rex 293 SC3 cells with doxycycline (CellTiter-Glo, 72 hours); assay type: cell-based; conditions: 72 h, T-Rex 293 SC3 cells with increased androgen receptor expression due to doxycycline (10 ng/mL)
Procedure, shortened: (§1)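 Doxycycline (10 ng/mL) was either included or omitted to toggle wild-type androgen receptor expression in SC3 cells, a T-Rex 293 clone, grown in stripped-serum, phenol red-free medium. After 72 hours with compound, viable cells were quantified by CellTiter-Glo 2.0.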

[2] = system: T-Rex 293 cell line SC3 cells lacking increased expression of androgen receptor protein; experiment: Cellular growth inhibition assay, T-Rex 293 SC3 cells without doxycycline (CellTiter-Glo, 72 hours); assay type: cell-based; conditions: T-Rex 293 cell line SC3 cells not exposed to doxycycline (lacking increased androgen receptor expression)
Procedure, shortened: as §1

[3] = system: VCaP cells; experiment: Cellular growth inhibition assay for VCaP cells (CellTiter-Glo, 72 hours); assay type: cell-based, human
Procedure, shortened: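 Luminescent viability signal after 72 h of compound exposure gave GI50 values by four-parameter nonlinear regression. Compounds were added in 0.5% DMSO to cells plated 24 h earlier at 5000/well in DMEM containing 10% FBS.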

[4] = system: T47D cells; experiment: Cellular growth inhibition assay for T47D cells (CellTiter-Glo, 72 hours); assay type: cell-based, human; conditions: 72 hours treatment
Method: T47D cells were purchased from American Type Cell Culture (ATCC Cat #HTB-133) and then seeded on poly-D-lysine coated, black clear-bottom 384-well plates at 3000/well in 25 μL Dulbecco's Modified Eagle Medium (DMEM) supplemented with 10% w/w Fetal bovine serum (FBS), 0.2 units/mL recombinant human insulin (Gibco Cat #12585014), and 1% w/w Pen-Strep. Pen-Strep is a commercially available mixture of penicillin G and streptomycin, which is used in mammalian cell culture media to prevent bacterial contamination. Dulbecco's Modified Eagle Medium (DMEM) supplemented with 10% w/w fetal bovine serum (FBS), 0.2 units/mL recombinant human insulin, and 1% w/w Pen-Strep is herein referred to as Treatment Medium. Following seeding of cells in the plates, the plates were spun at 300×g for 30 seconds, then equilibrated to room temperature for 30 minutes, and then deposited in a humidified tissue culture incubator maintained at 37° C. with 5% CO2.
At 24 hours after seeding of the cells, dilutions of test compound were prepared in DMSO and dissolved in Treatment Medium, to achieve a final DMSO concentration of 0.5% w/w, thereby providing the Test Compound Solution. A 25 μL aliquot of the Test Compound Solution was added to cells in the well plates. An equal volume of a solution containing DMSO and Treatment Medium was used as a negative control. Following treatment of cells with Test Compound Solution or said equal volume of a solution containing DMSO and Treatment Medium, the plates were spun at 300×g for 30 seconds, and then left in an incubator for 72 hours.
At the end of the treatment duration, cell viability was quantified with CellTiter-Glo 2.0 reagent (Promega Cat #G9243). For this purpose, plates were equilibrated to room temperature for 30 minutes, and then 25 μL of CellTiter-Glo 2.0 reagent was added to cells in the plate wells. Plates were then agitated on a shaker for two minutes at 500 rpm and subsequently incubated at room temperature for 10 minutes. Following incubation, the plates were spun at 3000×g for 30 seconds, then sealed with an optical adhesive cover, and luminescence readings were measured with an EnVision Plate Reader (Perkin Elmer).
Data was normalized using zero luminescence for baseline. A four-parameter non-linear regression curve fit was applied to dose-response data in GraphPad Prism data analysis software to determine the half-maximal growth inhibitory concentration (GI50) for each test compound.

Row | Structure (SMILES) | GI50 ([3]; Homo sapiens, VCaP, 72 h) | GI50 ([4]; Homo sapiens, T47D, 72 h) | GI50 [4] | GI50 [3] | GI50 [1] | GI50 ([2]; 72 h) | GI50 [2]
1 | Cc1sc2c(c1C)C(c1ccc(CCC3CCN(c4ccc(C(=O)NC5CCC(Oc6ccc(C#N)c(Cl)c6)CC5)nn4)CC3)cc1)=N[C@@H](Cc1ncco1)c1nnc(C)n1-2 (stereo partly drawn) [I-74, N-[4-(3-chloro-4-cyano-phenoxy)cyclohexyl]-6-[4-[2-[4-[(9S)-4,5,13-trimethyl-9-(oxazol-2-ylmethyl)-3-thia-1,8,11,12-tetrazatricyclo[8.3.0.02,6]trideca-2(6),4,7,10,12-pentaen-7-yl]phenyl]ethyl]-1-piperidyl]pyridazine-3-carboxamide] | < 500 nM | < 500 nM | – | – | < 500 nM | < 500 nM | –
2 | Cc1sc2c(c1C)C(c1ccc(OC3CC4(CCN(c5ccc(C(=O)N[C@H]6CC[C@H](Oc7ccc(C#N)c(Cl)c7)CC6)cc5)CC4)C3)cc1)=N[C@@H](Cc1ncco1)c1nnc(C)n1-2 [I-108] | < 500 nM | < 500 nM | – | – | < 500 nM | < 500 nM | –
3 | Cc1sc2c(c1C)C(c1ccc(CCCC3CCN(c4ccc(C(=O)N[C@H]5CC[C@H](Oc6ccc(C#N)c(Cl)c6)CC5)nn4)CC3)cc1)=NC(Cc1ncco1)c1nnc(C)n1-2 (some centres unmarked) [I-75] | < 500 nM | < 500 nM | – | – | < 500 nM | < 500 nM | –
4 | Cc1sc2c(c1C)C(c1ccc([C@@H]3CCN(C(=O)[C@@H]4CCCN(c5ccc(C(=O)N[C@H]6CC[C@H](Oc7ccc(C#N)c(Cl)c7)CC6)nn5)C4)C3)cc1)=N[C@@H](Cc1ncco1)c1nnc(C)n1-2 [I-341] | > 3000 nM | > 3000 nM | – | – | > 3000 nM | > 3000 nM | –
5 | Cc1sc2c(c1C)C(c1ccc(OC[C@H]3C[C@]4(CCCN(c5ccc(C(=O)N[C@H]6CC[C@H](Oc7ccc(C#N)c(Cl)c7)CC6)nn5)C4)C3)cc1)=N[C@@H](C)c1nnc(C)n1-2 [I-354] | < 500 nM | – | 500 to 1500 nM | – | – | – | > 3000 nM
6 | Cc1sc2c(c1C)C(c1ccc(C#CC3CC4(C3)CN(c3ccc(C(=O)N[C@H]5CC[C@H](Oc6ccc(C#N)c(Cl)c6)CC5)nn3)C4)cn1)=N[C@@H](Cc1ncco1)c1nnc(C)n1-2 [I-280] | < 500 nM | > 3000 nM | – | – | – | – | –
7 | CCNC(=O)C[C@@H]1N=C(c2ccc(CCCC3CCN(c4ccc(C(=O)N[C@H]5CC[C@H](Oc6ccc(C#N)c(Cl)c6)CC5)nn4)CC3)cc2)c2c(sc(C)c2C)-n2c(C)nnc21 [I-33] | < 500 nM | 500 to 1500 nM | – | – | – | 500 to 1500 nM | –
8 | Cc1sc2c(c1C)C(c1ccc(C[C@@H]3CC[C@@]4(C3)CN(c3ccc(C(=O)N[C@H]5CC[C@H](Oc6ccc(C#N)c(Cl)c6)CC5)nn3)CCO4)cc1)=N[C@@H](Cc1ncco1)c1nnc(C)n1-2 [I-265] | – | – | > 3000 nM | 1500 to 3000 nM | – | – | –
9 | Cc1sc2c(c1C)C(c1ccc(C[C@@H]3CC[C@]4(C3)CN(c3ccc(C(=O)N[C@H]5CC[C@H](Oc6ccc(C#N)c(Cl)c6)CC5)nn3)CCO4)cc1)=N[C@@H](Cc1ncco1)c1nnc(C)n1-2 [I-264] | 1500 to 3000 nM | > 3000 nM | – | – | – | – | –
10 | Cc1sc2c(c1C)C(c1ccc(C[C@H]3CCC4CN(c5ccc(C(=O)N[C@H]6CC[C@H](Oc7ccc(C#N)c(Cl)c7)CC6)nn5)CCN4C3)cc1)=N[C@@H](Cc1ncco1)c1nnc(C)n1-2 (some centres unmarked) [I-258] | < 500 nM | < 500 nM | – | – | – | – | –

More lines, main results first:

Row | GI50 ([3]; Homo sapiens, VCaP, 72 h) | GI50 ([4]; Homo sapiens, T47D, 72 h) | GI50 [4] | GI50 [3] | Structure (SMILES) | GI50 [1] | GI50 ([2]; 72 h) | GI50 [2]
11 | 500 to 1500 nM | > 3000 nM | – | – | Cc1sc2c(c1C)C(c1ccc(C(=O)N3CC[C@]4(CCCN(c5ccc(C(=O)N[C@H]6CC[C@H](Oc7ccc(C#N)c(Cl)c7)CC6)nn5)C4)C3)cc1)=N[C@@H](Cc1ncco1)c1nnc(C)n1-2 [I-270] | – | – | –
12 | > 3000 nM | > 3000 nM | – | – | Cc1sc2c(c1C)C(c1ccc(C(=O)N3CC[C@@]4(CCCN(c5ccc(C(=O)N[C@H]6CC[C@H](Oc7ccc(C#N)c(Cl)c7)CC6)nn5)C4)C3)cc1)=N[C@H](Cc1ncco1)c1nnc(C)n1-2 [I-271] | – | – | –
13 | > 3000 nM | > 3000 nM | – | – | Cc1sc2c(c1C)C(c1ccc(C(=O)N3CCC[C@@H](Cc4ccc(C(=O)N[C@H]5CC[C@H](Oc6ccc(C#N)c(Cl)c6)CC5)nn4)C3)cc1)=N[C@@H](Cc1ncco1)c1nnc(C)n1-2 [I-274] | – | – | –
14 | > 3000 nM | 500 to 1500 nM | – | – | Cc1sc2c(c1C)C(c1ccc(NCC(=O)N3CCC(c4ccc(C(=O)N[C@H]5CC[C@H](Oc6ccc(C#N)c(Cl)c6)CC5)nn4)CC3)cc1)=N[C@@H](Cc1ncco1)c1nnc(C)n1-2 [I-268] | – | – | –
